Experimental data: patent publication US20240252493A1, “Apelin Receptor Modulators for Treating Age-Related Muscle Conditions” (BIOAGE LABS, INC., priority 2021, published 2024)
Entries after “also recorded” stand apart in the source; their conditions may differ.

Tests used:
[1] = tested on: pAkt; assay: Western blot of pAkt in soleus after oral BGE-105; type: in vivo; conditions: mice, oral 45 mg/kg, vs vehicle
Description: (§1) Administration of an apelin receptor agonist can induce the phosphorylation and activation of AMPK in heart tissue. Tissue samples were lysed using T-PER tissue protein extraction reagent (Thermo Fisher Scientific #78510) containing EDTA and protease/phosphatase inhibitors on the Omni Bead Ruptor 12 Homogenizer. Total protein was extracted then quantified using Pierce™ BCA Protein Assay Kit. Loaded equal amounts of total protein per lane on a 4-12% SDS-PAGE gel and transferred to PVDF membrane. Membranes were blocked and blotted with anti-phospho-AMPKα-Thr172 (Cell Signaling Technology, CST #2535), total-AMPKα (CST #2532), anti-phospho-Akt-SeR^473 (CST #4060), total-Akt (CST #4685), anti-phospho-ERK-1/2-Thr202/Tyr204 of Erk1 and Thr185/Tyr187 of Erk2 (CST #4370), total-ERK-1/2 (CST #9107) or anti-APLNR receptor (abcam, ab214369) antibodies. Band intensities were normalized to loading control anti-β-Actin (CST #3700) or anti-GAPDH (abcam, ab181602) antibodies. Immunoreactive proteins were detected using SuperSignal™ West Femto Substrate (Thermo Fisher Scientific #34095) and quantified by Image Lab™ software (Bio-Rad Laboratories, Inc.).
Apelin can induce the phosphorylation of Akt in the soleus muscle and improve glucose homeostasis. […]

[2] = tested on: apelin receptor; assay: Apelin receptor protein levels in rat TA after chronic dosing; type: in vivo; conditions: rats, 5 consecutive days oral, 50 mg/kg QD and 200 mg/kg BID
Description: as §1
The difference between tissues was conserved among rodent species: In rats, as in mice, apelin receptor levels in rat tissue were 2-fold higher in heart than in soleus, FIGS. 5A-5B. […]

[3] = tested on: 79-HMC; assay: Proliferation of immortalized human muscle cells, older donor; type: cell-based; conditions: for cell proliferation (measured at day 4): older subject cells
Method: (§2) Immortalized human cells from male donors (25-HMC) […] (79-HMC) are grown from the proliferation stage until they become 80% confluent, differentiate, and become myotubes. […] Early proliferation markers (Pax7, Myf5, MyoD, and MyoG were assessed via RT-PCR (FIG. 8D to 8K)

[4] = tested on: 79-HMC; assay: Early proliferation marker expression (RT-PCR), older donor cells; type: cell-based, human
Method: as §2

[5] = tested on: immobilized human muscles; assay: Bed rest study in healthy older adult humans; type: in vivo; conditions: healthy older adults, 10 days bed rest, 200 mg a day
Description: Two groups of healthy older adult humans (e.g., N=10 per group) who are moderately active remain in bed continuously for 10 days, except for toileting, and they consume a eucaloric diet providing the recommended dietary allowance for protein (0.8 g/kg of protein per day). […] Measurements before and after bed rest include muscle function and protein synthesis.

SMILES: COc1cccc(OC)c1-n1c(NS(=O)(=O)[C@@H](C)[C@H](C)c2ncc(C)cn2)nnc1-c1cncc(C)c1 [BGE-105, (2S,3R)—N-(4-(2,6-dimethoxyphenyl)-5-(5-methyl-3-pyridinyl)-4H-1,2,4-triazol-3-yl)-3-(5-methyl-2-pyrimidinyl)-2-butanesulfonamide]
- pAkt levels in the soleus [1]: increased levels; also recorded: marginally significant increase
- apelin receptor levels in the TA [2]: modest but non-significant decrease
- cell proliferation, short-term treatment ([3]; aged donor cells, day 0 to day 4 post seeding): significant increase of cell proliferation
- cell proliferation (measured at day 4) ([3]; 5 nM): significant increase in cell proliferation
- cell proliferation (measured at day 4) ([3]; 50 nM): increase
- expression of muscle cell differentiation markers Pax7, Myf5, MyoD, and MyoG ([4]; aged-donor cells): increased the expression
- Pax7 levels ([4]; older cells, 0.05, 0.5, 5, 50 nM, vs control): significant increase at all treatment doses
- MyoG levels ([4]; older cells, all treatment levels): increase at all treatment levels
- Myf5 expression ([4]; older donor cells, 5 and 50 nM): equal to apelin treatment
- MyoD levels ([4]; older donor cells, all treatment levels): increase at all treatment levels
- muscle atrophy in immobilized human muscles [5]: prevent or attenuate muscle atrophy
